Laboratory results as given in patent US9593140B2, “Antibacterial tylosin derivatives and methods for their preparation” (Bayer Intellectual Property GmbH, priority 2011, dated 2017).

Test system: Mannhemia hemolytica KB345
Experiment: Paper disc assay, M. hemolytica KB345 (Tilmicosin-sensitivity strain)
Type: cell-based
Conditions: for zone of inhibition at 3 mg/disc / zone of inhibition at 10 mg/disc / zone of inhibition at 30 mg/disc / zone of inhibition at 100 mg/disc / zone of inhibition at 1 mg/disc: 24 h, Table 2; for zone of inhibition at 1 mg/disc: 1 mg/6 mm disk; for Inhibition zone (mm): Table 4
Method: (1) Antibacterial Activities Against Mannheimia and Pasteurella were Determined by the Following Steps:
1) M. hemolytica KB345 (Tilmicosin-sensitivity strain) and M. hemolytica KB346 (Tilmicosin-low sensitivity strain) were provided. KB 345 strain stored at −80° C. was seeded to BHIB agar medium (10 mL) by using Microbank beads (Pro-Lab) and platinum nail. After statically incubating the KB 345 strain for 24 hours at 37° C., it was seeded to maintaining slant BHIB agar medium (7 mL) by using platinum loop, further statically incubated for 24 hours at 37° C. to obtain slant. One platinum loop of KB 345 strain stored at the slant was inoculated into a large test tube charged with BHIB liquid medium (10 mL) and then incubated for 24 hours at 37° C. with shaking.
2) A paper disc (ADVANTEC, Φ:6 mm) was impregnated with a solution of test compound and dried under reduced pressure.
3) To a melted BHIB agar medium was inoculated 1% of the broth obtained from step 1) above to prepare a test plate. After the medium set, the paper disc prepared in step 2) above was put on the plate and it was incubated at 37° C.
4) After one day, the inhibition zone diameter and clarity (A to E) were determined.

SMILES | zone of inhibition at 3 mg/disc (3 mg/6 mm disk) [mm] | zone of inhibition at 10 mg/disc (10 mg/6 mm disk) [mm] | zone of inhibition at 30 mg/disc (30 mg/6 mm disk) [mm] | zone of inhibition at 100 mg/disc (100 mg/6 mm disk) [mm] | zone of inhibition at 1 mg/disc [mm] | Inhibition zone (mm) (3 mg/6 mm disk) | Inhibition zone (mm) (10 mg/6 mm disk) | Inhibition zone (mm) (30 mg/6 mm disk) | Inhibition zone (mm) (100 mg/6 mm disk)
CCCCCOc1ccc(-c2cn(CC[C@H]3C[C@@H](C)C(=O)/C=C/C(C)=C/[C@H](CO[C@@H]4OC(C)[C@@H](O)C(OC)C4OC)[C@@H](CC)OC(=O)C[C@@H](O)[C@H](C)[C@H]3O[C@@H]3OC(C)[C@@H](O)C(N(C)C)C3O)nn2)cc1 (stereo partly drawn) [YT27, 20-(4-(4-pentyloxyphenyl)-1H-1,2,3-triazol-1-yl)-20-deoxodesmycosin] | 9 | 11 | 13 | 16 | – | – | – | – | –
CCOC(=O)c1cn(CC[C@H]2C[C@@H](C)C(=O)/C=C/C(C)=C/[C@H](CO[C@@H]3OC(C)[C@@H](O)C(OC)C3OC)[C@@H](CC)OC(=O)C[C@@H](O)[C@H](C)[C@H]2O[C@@H]2OC(C)[C@@H](O)C(N(C)C)C2O)nn1 (stereo partly drawn) [YT22, 20-(4-ethoxycarbonyl-1H-1,2,3-triazol-1-yl)-20-deoxodesmycosin] | 11.5 | 14.5 | 18 | 21 | 7.5 | – | – | – | –
CC[C@H]1OC(=O)C[C@@H](O)[C@H](C)[C@@H](O[C@@H]2OC(C)[C@@H](O)C(N(C)C)C2O)[C@@H](CCn2cc(Cn3nnc4ccccc43)nn2)C[C@@H](C)C(=O)/C=C/C(C)=C/[C@@H]1CO[C@@H]1OC(C)[C@@H](O)C(OC)C1OC (stereo partly drawn) [YT28, 20-(4-(1-methyl-1H-benzotriazole)-1H-1,2,3-triazol-1-yl)-20-deoxodesmycosin] | 11 | 13 | 16 | 19 | – | – | – | – | –
CCCCCCCCCc1cn(CC[C@H]2C[C@@H](C)C(=O)/C=C/C(C)=C/[C@H](CO[C@@H]3OC(C)[C@@H](O)C(OC)C3OC)[C@@H](CC)OC(=O)C[C@@H](O)[C@H](C)[C@H]2O[C@@H]2OC(C)[C@@H](O)C(N(C)C)C2O)nn1 (stereo partly drawn) [YT34, 20-(4-nonyl-1H-1,2,3-triazol-1-yl)-20-deoxodesmycosin] | 11 | 13 | 14 | 15 | – | – | – | – | –
CC[C@H]1OC(=O)C[C@@H](O)[C@H](C)[C@@H](O[C@@H]2OC(C)[C@@H](O)C(N(C)C)C2O)[C@@H](CCn2cc(CCCCO)nn2)C[C@@H](C)C(=O)/C=C/C(C)=C/[C@@H]1CO[C@@H]1OC(C)[C@@H](O)C(OC)C1OC (stereo partly drawn) [YT36, 20-(4-(4-butanol)-1H-1,2,3-triazol-1-yl)-20-deoxodesmycosin] | – | – | – | 9 | – | – | – | – | –
CCCCc1cn(CC[C@H]2C[C@@H](C)C(=O)/C=C/C(C)=C/[C@H](CO[C@@H]3OC(C)[C@@H](O)C(OC)C3OC)[C@@H](CC)OC(=O)C[C@@H](O)[C@H](C)[C@H]2O[C@@H]2OC(C)[C@@H](O)C(N(C)C)C2O)nn1 (stereo partly drawn) [YT20, 20-(4-butyl-1H-1,2,3-triazol-1-yl)-20-deoxodesmycosin] | 11.5 | 16 | 17.5 | 20 | 9 | – | – | – | –
CC[C@H]1OC(=O)C[C@@H](O)[C@H](C)[C@@H](O[C@@H]2OC(C)[C@@H](O)C(N(C)C)C2O)[C@@H](CCn2cc(-c3ccc(C(C)(C)C)cc3)nn2)C[C@@H](C)C(=O)/C=C/C(C)=C/[C@@H]1CO[C@@H]1OC(C)[C@@H](O)C(OC)C1OC (stereo partly drawn) [YT26, 20-(4-(4-t-butylphenyl)-1H-1,2,3-triazol-1-yl)-20-deoxodesmycosin] | 9 | 11.5 | 14 | 16 | – | – | – | – | –
CC[C@H]1OC(=O)C[C@@H](O)[C@H](C)[C@@H](O[C@@H]2O[C@H](C)[C@@H](O[C@H]3C[C@@](C)(O)[C@@H](O)[C@H](C)O3)[C@H](N(C)C)[C@H]2O)[C@@H](CC=O)C[C@@H](C)C(=O)/C=C/C(C)=C/[C@@H]1CO[C@@H]1O[C@H](C)[C@@H](O)[C@@H](OC)[C@H]1OC [Tylosin] | – | – | 10.5 | 11 | – | – | – | – | –
CC[C@H]1OC(=O)C[C@@H](O)[C@H](C)[C@@H](O[C@@H]2OC(C)[C@@H](O)C(N(C)C)C2O)[C@@H](CCn2cc(-c3ccc(Oc4ccccc4)cc3)nn2)C[C@@H](C)C(=O)/C=C/C(C)=C/[C@@H]1CO[C@@H]1OC(C)[C@@H](O)C(OC)C1OC (stereo partly drawn) [YT24, 20-(4-(4-phenoxyphenyl)-1H-1,2,3-triazol-1-yl)-20-deoxodesmycosin] | 12 | 14.5 | 17 | 18 | 8.5 | – | – | – | –
CC[C@H]1OC(=O)C[C@@H](O)[C@H](C)[C@@H](O[C@@H]2OC(C)[C@@H](O)C(N(C)C)C2O)[C@@H](CCn2cc(-c3cccc(N)c3)nn2)C[C@@H](C)C(=O)/C=C/C(C)=C/[C@@H]1CO[C@@H]1OC(C)[C@@H](O)C(OC)C1OC (stereo partly drawn) [YT17] | 12 | 14 | 18 | 19.5 | – | – | – | – | –
CC[C@H]1OC(=O)C[C@@H](O)[C@H](C)[C@@H](O[C@@H]2OC(C)[C@@H](O)C(N(C)C)C2O)[C@@H](CCn2cc(-c3ccc(-c4ccccc4)cc3)nn2)C[C@@H](C)C(=O)/C=C/C(C)=C/[C@@H]1CO[C@@H]1OC(C)[C@@H](O)C(OC)C1OC (stereo partly drawn) [YT21] | 13.5 | 15.5 | 18 | 19 | 11.5 | – | – | – | –
CC[C@H]1OC(=O)C[C@@H](O)[C@H](C)[C@@H](O[C@@H]2OC(C)[C@@H](O)C(N(C)C)C2O)[C@@H](CCn2cc(-c3ccc(N)cc3)nn2)C[C@@H](C)C(=O)/C=C/C(C)=C/[C@@H]1CO[C@@H]1OC(C)[C@@H](O)C(OC)C1OC (stereo partly drawn) [YT18] | 11 | 14.5 | 17 | 19.5 | – | – | – | – | –
CC[C@H]1OC(=O)C[C@@H](O)[C@H](C)[C@@H](O[C@@H]2OC(C)[C@@H](O)C(N(C)C)C2O)[C@@H](CCn2cc(-c3cccnc3)nn2)C[C@@H](C)C(=O)/C=C/C(C)=C/[C@@H]1CO[C@@H]1OC(C)[C@@H](O)C(OC)C1OC (stereo partly drawn) [YT16, 20-(4-(pyridine-3-yl)-1H-1,2,3-triazol-1-yl)-20-deoxodesmycosin] | 11.5 | 14.5 | 16.5 | 19 | – | – | – | – | –
CC[C@H]1OC(=O)C[C@@H](O)[C@H](C)[C@@H](O[C@@H]2OC(C)[C@@H](O)C(N(C)C)C2O)[C@@H](CCn2cc(C(C)(C)O)nn2)C[C@@H](C)C(=O)/C=C/C(C)=C/[C@@H]1CO[C@@H]1OC(C)[C@@H](O)C(OC)C1OC (stereo partly drawn) [YT32, 20-(4-(1-methyl-1-hydroxylethyl)-1H-1,2,3-triazol-1-yl)-20-deoxodesmycosin] | – | 9 | 14 | 16 | – | – | – | – | –
CC[C@H]1OC(=O)C[C@@H](O)[C@H](C)[C@@H](O[C@@H]2OC(C)[C@@H](O)C(N(C)C)C2O)[C@@H](CCn2cc(-c3cnc4ccccc4c3)nn2)C[C@@H](C)C(=O)/C=C/C(C)=C/[C@@H]1CO[C@@H]1OC(C)[C@@H](O)C(OC)C1OC (stereo partly drawn) [YT35, 20-(4-(3-quinoline)-1H-1,2,3-triazol-1-yl)-20-deoxodesmycosin] | 14 | 17 | 19 | 21 | – | – | – | – | –
CC[C@H]1OC(=O)C[C@@H](O)[C@H](C)[C@@H](O[C@@H]2OC(C)[C@@H](O)C(N(C)C)C2O)[C@@H](CCn2cc(CC(C)C)nn2)C[C@@H](C)C(=O)/C=C/C(C)=C/[C@@H]1CO[C@@H]1OC(C)[C@@H](O)C(OC)C1OC (stereo partly drawn) [YT33, 20-(4-(2-methyl-propyl)-1H-1,2,3-triazol-1-yl)-20-deoxodesmycosin] | 13 | 16 | 17 | 20 | – | – | – | – | –
CC[C@H]1OC(=O)C[C@@H](O)[C@H](C)[C@@H](O[C@@H]2OC(C)[C@@H](O)C(N(C)C)C2O)[C@@H](CCn2cc(CNC)nn2)C[C@@H](C)C(=O)/C=C/C(C)=C/[C@@H]1CO[C@@H]1OC(C)[C@@H](O)C(OC)C1OC (stereo partly drawn) [YT30, 20-(4-(N-methyl-methylamine)-1H-1,2,3-triazol-1-yl)-20-deoxodesmycosin] | – | – | – | 10 | – | – | – | – | –
CC[C@H]1OC(=O)C[C@@H](O)[C@H](C)[C@@H](O[C@@H]2O[C@H](C)[C@@H](O)[C@H](N(C)C)[C@H]2O)[C@@H](CCn2cc(-c3ccccc3)nn2)C[C@@H](C)C(=O)/C=C/C(C)=C/[C@@H]1CN=[N+]=[N-] [YT114, 20-(4-phenyl-1H-1,2,3-triazol-1-yl)-20-deoxo-23-azido-23-deoxy-5-O-mycaminosyltylonolide] | – | – | – | – | – | 11.5 | 17.5 | 21.0 | 21.0
CC[C@H]1OC(=O)C[C@@H](O)[C@H](C)[C@@H](O[C@@H]2OC(C)[C@@H](O)C(N(C)C)C2O)[C@@H](CCn2cc(CO)nn2)C[C@@H](C)C(=O)/C=C/C(C)=C/[C@@H]1CO[C@@H]1OC(C)[C@@H](O)C(OC)C1OC (stereo partly drawn) [YT37, 20-(4-(methanol)-1H-1,2,3-triazol-1-yl)-20-deoxodesmycosin] | – | – | 9 | 12.5 | – | – | – | – | –
